The target in assay [1] is T1, urokinase (Homo sapiens, UniProt P00749).
T1 construct: purchased Sigma
As to the kind of experiment: Urokinase inhibition constant (Ki), fluorogenic substrate assay. Format: biochemical. The settings on record: substrate N-Cbz-Gly-Gly-Arg-AMC. How it is done: (§1) The activity and selectivity of the present invention can be identified by determination of the inhibition constant (Ki) for serine proteases such thrombin and trypsin and fibrinolytic enzymes such as urokinase, plasmin and tissue plasminogen activator (tPA). All of enzymes are purchased from Sigma. The general assay conditions are as follows. The fluorogenic substrates are dissolved in DMSO and diluted using assay buffer containing 50 mM Tris.HCl (pH 7.8 at 25° C.), 0.1 M NaCl and 0.1% polyethylene glycol 8000 (PEG 8000). […] The assays were conducted using Hitachi F2500 spectrophotometer under ambient temperature and at the excitation and emission wavelengths of 383 nm and 455 nm, respectively. The typical progressive data of the enzymatic assays are shown in FIGS. 1-3, and the determination of inhibition constant (Ki) is shown in FIG. 4.

Assay [2] concerns the target T2, plasmin (Homo sapiens, UniProt P00747).
T2 construct: purchased Sigma
As to the kind of experiment: Plasmin inhibition constant (Ki), fluorogenic substrate assay. Format: biochemical. The settings on record: substrate D-Ala-Leu-Lys-AMC. Here is the method: as §1

In assay [3] the target is T3, tissue plasminogen activator (tPA) (Homo sapiens, UniProt P00750).
T3 construct: purchased Sigma
As to the kind of experiment: tPA inhibition constant (Ki), fluorogenic substrate assay. Format: biochemical. The settings on record: substrate Boc-L-(p-F) FPR-ANSNH-C2H5. Here is the method: as §1

Assay [4] has as its system ICR mice. Kind of assay: Clotting time (CT) of mice whole blood after administration. Format: in vivo.
Procedure: Blood samples were collected using the capillary method 0.5 h and 1.5 h after i.v. injections and 1 h and 3 h after i.g. and clotting time of whole blood was measured.
Assay [5] deals with SD rats. Kind of assay: RT, TT, PT, APTT and FIB in rat plasma after administration. Also on record: FIB (Fibrillation) / RT (Clot Retraction Time) / TT (Thrombin Time): unit not given here. The settings on record: 2.5 mg/kg i.v. Format: in vivo. Here is the method:
Blood was taken at 0.5 h and 1.5 h after i.v. injection and at 1 h and 3 h after i.g. and plasma RT,TT,PT,APTT and FIB were determined.

Assay [6] relates to SD rats. As to the kind of experiment: Weight of deep vein thrombosis (inferior vena cava thrombi) in rats. Format: in vivo, rat. The settings on record: 1.25 mg/kg i.v., 4 hours.
Procedure: The drug was administered immediately after operation and, 4 hours later, the thrombi were collected and weighted.
The test system of assay [7] is SD rats. As to the kind of experiment: Acute myocardial infarction by coronary artery ligation in rats.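 As to CK (u/ml): blood collected at end of 6 h (i.v.) or 8 h (intraduodenal) ECG observation.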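 As to LDH (u/ml): blood collected at end of 6 h (i.v.) or 8 h (intraduodenal) ECG observation.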 Format: in vivo, rat. The settings on record: for S point in electrocardiogram / T wave in electrocardiogram: reference drug 0.125 mg/kg i.v.
Procedure: The drugs were administered 8 to 10 min after the coronary artery was ligated.
The target in assay [8] is T4, thrombin (Homo sapiens, UniProt P00734).
T4 construct: purchased Sigma
Kind of assay: Thrombin inhibition constant (Ki), fluorogenic substrate assay. Format: biochemical. The settings on record: Table II, method of example 9.

Setting [9] is: 0 min after ligation (before drug).
[10] abbreviates: serum, reference drug, 0.125 mg/kg i.v.

T3 sequence (P00750 36-562, species assumed): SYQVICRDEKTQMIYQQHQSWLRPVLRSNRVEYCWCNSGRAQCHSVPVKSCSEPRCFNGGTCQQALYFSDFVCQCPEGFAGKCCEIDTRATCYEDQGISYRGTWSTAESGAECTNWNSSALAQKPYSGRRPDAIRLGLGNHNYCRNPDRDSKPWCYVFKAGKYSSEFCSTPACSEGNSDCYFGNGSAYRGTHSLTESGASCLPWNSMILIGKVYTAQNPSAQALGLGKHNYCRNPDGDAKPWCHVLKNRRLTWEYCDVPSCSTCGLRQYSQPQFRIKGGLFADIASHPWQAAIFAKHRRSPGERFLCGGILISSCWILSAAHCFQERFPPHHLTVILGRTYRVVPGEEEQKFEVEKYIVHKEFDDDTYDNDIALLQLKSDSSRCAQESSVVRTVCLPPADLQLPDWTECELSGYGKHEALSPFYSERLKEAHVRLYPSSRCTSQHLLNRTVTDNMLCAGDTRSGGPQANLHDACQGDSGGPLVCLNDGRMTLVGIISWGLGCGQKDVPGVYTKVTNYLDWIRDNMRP
T2 sequence (P00747 581-810 limits assumed, species assumed): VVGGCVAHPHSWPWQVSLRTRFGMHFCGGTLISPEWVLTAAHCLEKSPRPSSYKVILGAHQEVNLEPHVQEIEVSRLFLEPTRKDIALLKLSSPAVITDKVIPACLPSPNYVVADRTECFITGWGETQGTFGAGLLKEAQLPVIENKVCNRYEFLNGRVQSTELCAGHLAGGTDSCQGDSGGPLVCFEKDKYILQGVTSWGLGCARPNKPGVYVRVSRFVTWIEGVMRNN
T2 sequence (P00747 97-580 partner limits assumed, species assumed): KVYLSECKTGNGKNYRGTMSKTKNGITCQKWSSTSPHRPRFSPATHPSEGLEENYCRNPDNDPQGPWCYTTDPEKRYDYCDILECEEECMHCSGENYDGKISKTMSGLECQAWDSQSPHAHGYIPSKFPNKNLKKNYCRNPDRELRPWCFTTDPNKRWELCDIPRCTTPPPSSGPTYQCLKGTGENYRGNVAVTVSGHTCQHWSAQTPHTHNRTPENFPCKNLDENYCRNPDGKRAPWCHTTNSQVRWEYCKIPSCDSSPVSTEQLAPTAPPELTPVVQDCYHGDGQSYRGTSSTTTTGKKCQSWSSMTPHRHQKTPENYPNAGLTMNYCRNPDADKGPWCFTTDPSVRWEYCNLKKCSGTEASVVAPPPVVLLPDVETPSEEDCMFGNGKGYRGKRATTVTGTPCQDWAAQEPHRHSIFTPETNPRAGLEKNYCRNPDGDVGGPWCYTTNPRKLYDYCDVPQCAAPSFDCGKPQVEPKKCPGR

Broadly, the Ki is the equilibrium dissociation constant of an inhibitor or competing ligand from its target. In the case of `CC1CNc2c(cccc2S(=O)(=O)N[C@@H](CCCNC(=N)N)C(=O)N2CC[C@@H](C)C[C@@H]2C(=O)O)C1` (stereo partly shown) [Argatroban, reference compound], the figures for the Ki in assay [1], in assay [2] and in assay [3] were 999 µM, 372 µM and 777 µM, respectively. For the same compound, the “CT (clotting time of whole blood)” value in assay [4] (2.5 mg/kg i.v. group, before administration) came out at 133.28 ± 26.21; in assay [4] (2.5 mg/kg i.v., 0.5 h), 170.33 ± 28.34; in assay [4] (2.5 mg/kg i.v., 1.5 h) it was 156.11 ± 32.08. Also, the “APTT (Activated Partial Prothromboplastin Time)” value was determined as 37.9 ± 10.2 in assay [5] (0.5 h) and 30.1 ± 6.5 in assay [5] (1.5 h). Further, the “PT (Prothrombin Time)” value in assay [5] (0.5 h) came to 37.9 ± 8.6; in assay [5] (1.5 h), 29.5 ± 8.5. In addition, the “RT (Clot Retraction Time)” value in assay [5] (0.5 h) came to 91.2 ± 15.0; in assay [5] (1.5 h), 77.4 ± 10.6. The “TT (Thrombin Time)” value is listed as 72.9 ± 20.1 in assay [5] (0.5 h) and 50.4 ± 12.3 in assay [5] (1.5 h). The “FIB (Fibrillation)” value in assay [5] (1.5 h) is 4.0 ± 0.9. For the same compound, in assay [6], the “Thrombi (mg) Dry weight” value amounted to 6.26 ± 3.72 mg. Besides, the “Thrombi (mg) Wet weight” value in assay [6] is listed as 18.04 ± 8.99 mg. The “S point in electrocardiogram” value in assay [7] (setting [9]) amounted to 0.35 ± 0.16; in assay [7] (10 min after ligation), 0.36 ± 0.20; in assay [7] (30 min after ligation) it was 0.26 ± 0.15; in assay [7] (6 h after ligation) it was 0.19 ± 0.10. Moreover, the “T wave in electrocardiogram” value stood at 0.23 ± 0.16 in assay [7] (setting [9]), 0.21 ± 0.18 in assay [7] (10 min after ligation), 0.16 ± 0.18 in assay [7] (30 min after ligation) and 0.11 ± 0.10 in assay [7] (6 h after ligation). The “Infarction Area (%)” value in assay [7] (reference drug, 0.125 mg/kg i.v.) stood at 23.55 ± 7.95 %. Besides, in assay [7] (setting [10]), the “CK (u/ml)” value was determined as 55.92 ± 11.46 u/ml. The “LDH (u/ml)” value in assay [7] (setting [10]) came to 6259.5 ± 308.6 u/ml.
`CCC1CCN2C(=O)C(CCCNC(=N)N)N(S(=O)(=O)c3cccc4c3NCC(C)C4)C(=O)C2C1` (stereo not shown) [compound 2] showed a Ki in assay [8] of 61 nM.
For `CC1CNc2c(cccc2S(=O)(=O)N2C(=O)C3CC(c4ccccc4)CCN3C(=O)C2CCCNC(=N)N)C1` (stereo not shown) [compound 3], the Ki in assay [8] amounted to 910 nM.
`CC1CNc2c(cccc2S(=O)(=O)N2C(=O)C3CC(C(C)(C)C)CCN3C(=O)C2CCCNC(=N)N)C1` (stereo not shown) [compound 4] came in with a Ki in assay [8] of 1580 nM.

Source of the values: patent US20050096323A1, “Diketopiperazine derivatives to inhibit thrombin” (NovoScience Pharma Inc., priority 1999, published 2005).
